Results: patent US6713492B1, “N-acyloxylated cycloalkyl compounds, composition containing the same and methods of use therefor” (Daiichi Radioisotope Laboratories, Ltd., priority 1998, dated 2004)

How the values were obtained:
[1] = system: rat brain; test: Measurement of ESR-CT image of rat brain after intraperitoneal administration; type: in vivo, Wister male rats; conditions: 6 ml of 150 mM saline solution intraperitoneally, ESR-CT 20 minutes after administration
Experimental: 6 ml of 150 mM physiological saline solution of 1-acetoxy-3-carbamoyl-2,2,5,5-tetramethylpyrrolidine was intraperitoneally administered to Wister male rats (200 g, age: nine weeks) anesthesized with pentobarbital. The head of the rat was secured so that the part of the head 9 mm ahead of the external auditory meatus came to the center of the resonator. ESR-CT was measured 20 minutes after administration. The measuring conditions of ESR-CT were as follows.
(Measurement Conditions of ESR-CT)
Instrument: 700 MHz band electron spin resonance apparatus
Microwave frequency: 720 MHz
Central magnetic field: 25 mT
Magnetic field sweep width: 15 mT
Magnetic field modulation width: 0.2 mT
Magnetic field modulation frequency: 100 kHz
Magnetic field gradient: 1 mT/cm
Magnetic field gradient rotational angle: 20°
The measured black-and-white picture image is shown in FIG. 2, and a color picture image is attached as a reference figure. In FIG. 2, A is a rat brain ESR-CT image 1 mm posterior to the bregma, and B is a rat brain ESR-CT image 3 mm posterior to the bregma. FIG. 3 is a drawing describing the part of the brain indicated by the anatomical chart in FIG. 2.

[2] = system: Esterase, Porcine Liver; test: Test for measuring enzyme activity: hydrolysis of the sample by esterase, followed by ESR; type: in vitro ADME; conditions: 1 mM sample solution, esterase 0.2-200 U/ml in phosphate buffered saline pH7.4, one minute, oxidised to nitroxide
Experimental: Capability of enzyme (esterase) activity determination by ESR using 1-acetoxy-3-carbamoyl-2,2,5,5-tetramethylpyrrolidine was examined. Esterase (3360 U/ml, manufactured by Sigma Co., Esterase, Porcine Liver) was diluted with a phosphate buffered saline solution (pH7.4, 67 mM) to concentrations of 0.2, 2, 20, and 200 U/ml. 100 μl of each diluent was added to 100 μl of a 1 mM sample solution, and allowed to stand for one minute. Specifically, the sample was converted into a hydroxylamine derivative using the esterase. Next, 10 μl of 10 mM sodium periodide phosphate buffered saline solution was added. Specifically, the hydroxylamine derivative produced was converted into a nitroxide derivative which can be measured by ESR. Finally, this solution is suctioned into a flat cell (manufactured by Labotech Co.) to measure ESR spectrum using “JES-REIX” manufactured by JEOL Ltd after one minute.
In addition, it was confirmed that the esterase activity can be measured by using this reaction.

Compound | transfer to the brain and conversion to nitroxide derivative [1] | melting point [°C] | hydrolysis by esterase (ESR signal strength vs esterase concentration) [2]
CC(=O)ON1C(C)(C)CC(C(N)=O)C1(C)C (stereo not drawn) [1-Acetoxy-3-carbamoyl-2,2,5,5-tetramethylpyrrolidine] | hydrolyzed after being transferred to the brain, and oxidized by intracerebral active oxygen and free radicals into a nitroxide derivative | 150 to 151 | hydrolyzed by esterase in a short time and the reaction is quantitative
CCC(=O)ON1C(C)(C)CC(C(N)=O)C1(C)C (stereo not drawn) [Example 2, 1-Propionyloxy-3-carbamoyl-2,2,5,5-tetramethylpyrrolidine] | – | 116 to 117 | –
CC1(C)CC(C(N)=O)C(C)(C)N1OC(=O)c1ccccc1 (stereo not drawn) [Example 4, 1-Benzoyloxy-3-carbamoyl-2,2,5,5-tetramethylpyrrolidine] | – | 199 to 201 | –
CC(=O)OC1CC(C)(C)N(OC(C)=O)C(C)(C)C1 [Example 5, 1,4-Diacetoxy-2,2,6,6-tetramethylpiperidine] | – | 72 to 73 | –
